From ChEMBL document CHEMBL1201862, “PubChem BioAssay data set” (2004)
“And” between values parts separate entries of the source, which are not always exact repeats. Equal entries are not always repeated. The source made the active and inactive calls. Non-standard residues stand in square brackets, D forms with d. Residues, ends and D or L forms follow the SMILES beside them. dChg = N[C@@H](C(=O)O)C1CCCCC1; NMeA = CN[C@@H](C)C(=O)O

Legend:
[1] = biological target: Intestinal-type alkaline phosphatase (Homo sapiens, UniProt P09923); test: human intestinal alkaline phosphatase activators, dose response, biochemical, luminescence, uHTS hits (AID 463120); format: functional
Chain of Intestinal-type alkaline phosphatase (P09923 whole entry): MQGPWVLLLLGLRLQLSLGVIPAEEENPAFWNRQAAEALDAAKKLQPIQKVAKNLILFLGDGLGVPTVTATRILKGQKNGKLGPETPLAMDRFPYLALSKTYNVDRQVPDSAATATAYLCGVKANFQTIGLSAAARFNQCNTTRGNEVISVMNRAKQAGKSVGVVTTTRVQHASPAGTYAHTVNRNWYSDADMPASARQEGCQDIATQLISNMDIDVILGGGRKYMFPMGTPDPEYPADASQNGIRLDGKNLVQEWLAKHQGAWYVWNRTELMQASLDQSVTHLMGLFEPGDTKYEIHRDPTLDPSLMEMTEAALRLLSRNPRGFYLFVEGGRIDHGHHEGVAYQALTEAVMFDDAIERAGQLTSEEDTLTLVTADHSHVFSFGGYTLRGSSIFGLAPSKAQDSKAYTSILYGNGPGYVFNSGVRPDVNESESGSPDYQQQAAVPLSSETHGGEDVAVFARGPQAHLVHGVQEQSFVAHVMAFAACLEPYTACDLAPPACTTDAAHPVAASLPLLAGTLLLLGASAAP

[2] = biological target: T1, Kappa-type opioid receptor (Homo sapiens, UniProt P41145); test: SAR analysis of Antagonists of the Kappa Opioid Receptor (KOR) using an Image-Based Assay - Set 2. [Related pubchem assays (depositor defined):AID1777, AID1785, AID1786, AID1966, AID2133, AID2136, AID2284, AID2285, AID2348]; format: functional
T1 sequence (P41145 whole entry): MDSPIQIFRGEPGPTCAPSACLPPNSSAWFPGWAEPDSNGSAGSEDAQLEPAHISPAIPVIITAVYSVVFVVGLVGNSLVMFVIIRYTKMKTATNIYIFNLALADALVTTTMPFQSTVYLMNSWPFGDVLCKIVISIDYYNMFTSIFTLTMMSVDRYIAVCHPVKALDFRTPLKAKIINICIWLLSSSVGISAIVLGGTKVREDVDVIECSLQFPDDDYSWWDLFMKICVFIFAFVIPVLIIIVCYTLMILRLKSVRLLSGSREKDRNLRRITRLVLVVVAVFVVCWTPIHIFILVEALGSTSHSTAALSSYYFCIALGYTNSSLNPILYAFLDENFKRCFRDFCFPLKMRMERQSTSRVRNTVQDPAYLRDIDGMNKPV

[3] = biological target: T1, Kappa-type opioid receptor; test: SAR analysis of small molecule agonists of the kappa opioid receptor via a luminescent beta-arrestin assay - Set 2. [Related pubchem assays (depositor defined):AID1777, AID1785, AID1786, AID1966, AID2133, AID2136, AID2284, AID449737]; format: functional
[4] = biological target: Delta-type opioid receptor (Homo sapiens, UniProt P41143); test: SAR Analysis of Antagonists of the DOR Receptor using an Image-Based Assay - Set 2. [Related pubchem assays (depositor defined):AID1777, AID1785, AID1786, AID1966, AID2133, AID2136, AID2284, AID2285, AID2357]; format: functional
Chain of Delta-type opioid receptor (P41143 whole entry): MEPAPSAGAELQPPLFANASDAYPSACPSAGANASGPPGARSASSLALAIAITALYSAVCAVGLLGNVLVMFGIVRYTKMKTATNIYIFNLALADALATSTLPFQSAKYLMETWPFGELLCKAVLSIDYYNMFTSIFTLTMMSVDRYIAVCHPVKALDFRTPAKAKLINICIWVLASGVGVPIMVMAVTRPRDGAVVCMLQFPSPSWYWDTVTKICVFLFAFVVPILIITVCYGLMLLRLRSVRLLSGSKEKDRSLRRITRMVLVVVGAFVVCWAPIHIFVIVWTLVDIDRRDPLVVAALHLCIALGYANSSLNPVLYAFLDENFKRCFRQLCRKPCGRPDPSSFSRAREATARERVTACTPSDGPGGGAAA

[5] = biological target: T2, Sphingosine 1-phosphate receptor 4 (Homo sapiens, UniProt O95977); test: potency of S1P4 activators – cell-based, fluorescence, synthesized compounds, late-stage follow-up (AID 463107); format: functional
T2 sequence (O95977 whole entry): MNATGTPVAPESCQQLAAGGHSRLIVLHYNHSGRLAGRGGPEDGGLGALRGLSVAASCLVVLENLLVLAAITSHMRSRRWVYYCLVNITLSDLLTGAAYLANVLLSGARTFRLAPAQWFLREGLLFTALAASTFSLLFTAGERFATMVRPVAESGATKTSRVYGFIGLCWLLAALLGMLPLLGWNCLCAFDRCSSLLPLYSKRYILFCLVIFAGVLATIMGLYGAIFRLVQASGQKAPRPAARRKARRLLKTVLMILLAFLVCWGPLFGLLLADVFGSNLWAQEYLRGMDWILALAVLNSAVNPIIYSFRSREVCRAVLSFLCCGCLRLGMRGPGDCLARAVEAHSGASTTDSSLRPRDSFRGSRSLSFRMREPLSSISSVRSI

[6] = biological target: T2, Sphingosine 1-phosphate receptor 4; test: Late-stage fluorescence dose response cell-based assay to identify agonists of the Sphingosine 1-Phosphate Receptor 4 (S1P4): purchased compounds EC50. [Related pubchem assays (depositor defined):AID1509, AID1523, AID1563, AID1686, AID1701, AID1801]; format: functional
[7] = biological target: T3, E3 ubiquitin-protein ligase XIAP (Homo sapiens, UniProt P98170); test: SAR analysis of Antagonists of XIAP-Bir3 domain of IAP-family anti-apoptotic proteins. [Related pubchem assays (depositor defined):AID1018, AID1449, AID1513, AID1514, AID1638]
T3 sequence (P98170 whole entry, the tested form may be a part): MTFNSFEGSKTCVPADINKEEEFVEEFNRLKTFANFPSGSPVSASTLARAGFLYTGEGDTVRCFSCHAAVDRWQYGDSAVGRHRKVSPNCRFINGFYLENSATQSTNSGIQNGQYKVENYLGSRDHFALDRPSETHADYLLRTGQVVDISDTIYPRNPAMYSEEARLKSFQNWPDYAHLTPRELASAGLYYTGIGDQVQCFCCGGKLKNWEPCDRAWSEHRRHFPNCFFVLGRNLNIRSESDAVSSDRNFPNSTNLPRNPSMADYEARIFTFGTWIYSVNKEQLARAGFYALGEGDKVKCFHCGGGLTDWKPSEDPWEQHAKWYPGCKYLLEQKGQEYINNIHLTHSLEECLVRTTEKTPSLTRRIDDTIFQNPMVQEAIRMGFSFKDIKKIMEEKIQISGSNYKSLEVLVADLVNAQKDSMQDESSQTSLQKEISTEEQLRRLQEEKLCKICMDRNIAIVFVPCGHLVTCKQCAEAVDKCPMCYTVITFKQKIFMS

[8] = biological target: T3, E3 ubiquitin-protein ligase XIAP; test: SAR analysis of Antagonists of IAP-family anti-apoptotic proteins. [Related pubchem assays (depositor defined):AID1018, AID1449, AID1513, AID1514, AID1638]
[9] = biological target: Prothrombin (Homo sapiens, UniProt P00734); test: Thrombin 1536 HTS Dose Response Confirmation. [Related pubchem assays: 1046 (Thrombin 1536 HTS; hits were confirmed in this assay)]; format: functional
[10] = biological target: T4, Coagulation factor XII (Homo sapiens, UniProt P00748); test: Factor XIIa Dose Response Confirmation from Single Well HTS. [Related pubchem assays (depositor defined):AID701]; format: functional
T4 sequence (P00748 whole entry): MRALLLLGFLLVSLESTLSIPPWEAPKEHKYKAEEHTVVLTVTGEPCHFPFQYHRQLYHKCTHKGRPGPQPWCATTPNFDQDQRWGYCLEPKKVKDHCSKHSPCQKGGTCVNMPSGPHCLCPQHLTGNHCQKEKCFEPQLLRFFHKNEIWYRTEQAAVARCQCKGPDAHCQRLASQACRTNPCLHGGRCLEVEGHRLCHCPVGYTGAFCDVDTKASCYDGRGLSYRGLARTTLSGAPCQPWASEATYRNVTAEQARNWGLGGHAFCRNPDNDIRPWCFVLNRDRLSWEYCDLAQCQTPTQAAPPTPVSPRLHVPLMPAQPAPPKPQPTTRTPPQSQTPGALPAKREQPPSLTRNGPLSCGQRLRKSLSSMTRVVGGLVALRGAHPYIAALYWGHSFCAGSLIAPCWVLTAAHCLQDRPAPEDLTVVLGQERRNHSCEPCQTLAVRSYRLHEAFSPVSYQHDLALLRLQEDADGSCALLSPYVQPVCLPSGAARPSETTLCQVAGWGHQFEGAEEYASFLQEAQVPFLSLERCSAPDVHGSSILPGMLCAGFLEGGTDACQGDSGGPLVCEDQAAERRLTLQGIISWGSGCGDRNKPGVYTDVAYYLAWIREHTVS

[11] = biological target: T5, Protein skinhead-1 (Caenorhabditis elegans, UniProt P34707); format: functional
T5 sequence (P34707 whole entry): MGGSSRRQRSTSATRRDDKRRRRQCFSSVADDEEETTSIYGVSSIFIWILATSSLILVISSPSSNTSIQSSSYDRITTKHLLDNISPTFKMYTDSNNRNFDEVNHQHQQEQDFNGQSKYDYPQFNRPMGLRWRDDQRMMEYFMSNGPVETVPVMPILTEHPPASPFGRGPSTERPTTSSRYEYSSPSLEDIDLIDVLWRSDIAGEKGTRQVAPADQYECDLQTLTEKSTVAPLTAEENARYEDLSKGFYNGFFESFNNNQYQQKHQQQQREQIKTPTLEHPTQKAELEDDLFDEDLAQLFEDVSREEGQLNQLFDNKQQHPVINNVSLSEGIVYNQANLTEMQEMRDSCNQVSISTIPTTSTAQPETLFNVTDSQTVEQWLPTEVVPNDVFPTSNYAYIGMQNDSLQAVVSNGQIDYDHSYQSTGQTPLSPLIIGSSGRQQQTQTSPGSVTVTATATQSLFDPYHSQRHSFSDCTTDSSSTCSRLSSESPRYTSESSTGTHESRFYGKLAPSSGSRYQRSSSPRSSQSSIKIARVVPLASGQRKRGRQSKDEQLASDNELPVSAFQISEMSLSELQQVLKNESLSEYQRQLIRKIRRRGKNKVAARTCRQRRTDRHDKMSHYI

[12] = biological target: T6, Runt-related transcription factor 1/Core-binding factor subunit beta (Homo sapiens, UniProt Q01196+Q13951); test: disruptors of Runt domain/CBFb-SMMHC interaction – biochemical, FRET, Cerulean-Runt, Venus-CBFb-SMMHC, uHTS, […] (AID 1434); format: protein assay
T6 sequence (Q01196 whole entry, the tested form may be a part): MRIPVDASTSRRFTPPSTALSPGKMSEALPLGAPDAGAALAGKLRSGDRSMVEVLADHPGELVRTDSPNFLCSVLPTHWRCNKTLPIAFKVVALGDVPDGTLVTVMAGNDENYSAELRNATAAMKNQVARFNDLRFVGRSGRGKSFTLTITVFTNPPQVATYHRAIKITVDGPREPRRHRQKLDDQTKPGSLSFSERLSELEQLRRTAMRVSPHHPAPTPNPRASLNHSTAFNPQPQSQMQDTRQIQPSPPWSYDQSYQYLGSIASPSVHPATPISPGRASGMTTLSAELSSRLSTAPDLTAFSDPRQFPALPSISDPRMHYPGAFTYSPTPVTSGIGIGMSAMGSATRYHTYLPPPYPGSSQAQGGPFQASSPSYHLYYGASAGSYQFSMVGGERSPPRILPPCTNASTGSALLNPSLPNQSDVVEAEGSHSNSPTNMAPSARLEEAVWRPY
T6 sequence (Q13951 whole entry, the tested form may be a part): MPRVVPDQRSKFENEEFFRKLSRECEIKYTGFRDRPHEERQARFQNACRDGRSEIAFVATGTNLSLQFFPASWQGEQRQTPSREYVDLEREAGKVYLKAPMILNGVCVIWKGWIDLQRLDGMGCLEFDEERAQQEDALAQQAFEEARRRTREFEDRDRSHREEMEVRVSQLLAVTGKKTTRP

[13] = biological target: SUMO-activating enzyme (Homo sapiens, UniProt Q9UBT2); test: blockers of UBC9-mediated SUMO conjugation – biochemical, AlphaScreen, SUMOylation inhibitor project, confirmation (AID 2018); format: functional
[14] = biological target: T6, Runt-related transcription factor 1/Core-binding factor subunit beta; test: Runt domain/CBFb-SMMHC interaction disruptors – biochemical, TR-FRET (AID 1438); format: protein assay
[15] = biological target: Aspartyl aminopeptidase (Plasmodium falciparum 3D7, UniProt Q8I2J3)
Chain of Aspartyl aminopeptidase (Q8I2J3 whole entry): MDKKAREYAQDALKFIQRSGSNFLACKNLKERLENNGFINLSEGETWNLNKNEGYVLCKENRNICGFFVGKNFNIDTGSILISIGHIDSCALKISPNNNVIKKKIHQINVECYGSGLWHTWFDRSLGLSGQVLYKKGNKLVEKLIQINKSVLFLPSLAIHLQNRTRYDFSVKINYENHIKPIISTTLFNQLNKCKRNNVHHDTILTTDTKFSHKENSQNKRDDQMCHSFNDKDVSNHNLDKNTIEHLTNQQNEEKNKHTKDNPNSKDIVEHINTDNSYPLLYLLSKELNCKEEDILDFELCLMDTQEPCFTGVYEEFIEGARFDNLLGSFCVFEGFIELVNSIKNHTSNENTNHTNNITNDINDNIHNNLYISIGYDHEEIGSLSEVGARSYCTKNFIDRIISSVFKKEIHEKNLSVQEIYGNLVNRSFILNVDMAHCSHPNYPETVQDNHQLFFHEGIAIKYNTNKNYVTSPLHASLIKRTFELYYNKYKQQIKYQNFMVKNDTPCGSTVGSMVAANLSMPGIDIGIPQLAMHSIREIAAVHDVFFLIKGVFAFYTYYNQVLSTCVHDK

[16] = biological target: Procathepsin L (Homo sapiens, UniProt P07711)
Chain of Procathepsin L (P07711 whole entry): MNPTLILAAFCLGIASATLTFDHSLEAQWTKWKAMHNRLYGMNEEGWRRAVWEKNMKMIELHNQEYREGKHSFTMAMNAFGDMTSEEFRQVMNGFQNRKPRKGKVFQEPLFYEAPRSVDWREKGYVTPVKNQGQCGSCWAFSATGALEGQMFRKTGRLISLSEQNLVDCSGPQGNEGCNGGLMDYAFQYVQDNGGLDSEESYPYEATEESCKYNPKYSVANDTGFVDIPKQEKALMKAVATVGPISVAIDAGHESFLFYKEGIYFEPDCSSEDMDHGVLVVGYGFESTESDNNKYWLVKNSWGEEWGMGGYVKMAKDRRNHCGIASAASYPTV

[17] = biological target: T3, E3 ubiquitin-protein ligase XIAP; test: Counter Screen using XIAP-Bir3 for Chemical Antagonists of Bir1/2 domains of IAP-family anti-apoptotic proteins. [Related pubchem assays (depositor defined):AID1018, AID1449, AID1514, AID1638, AID1749, AID1750, AID488957, AID488963]
[18] = biological target: T3, E3 ubiquitin-protein ligase XIAP; test: small molecules displacing peptide from XIAP – biochemical, IAP family, fluorescence polarization (AID 1018); format: functional
[19] = biological target: DNA damage-inducible transcript 3 protein (Mus musculus, UniProt P35639); format: functional, Cricetulus griseus
Chain of DNA damage-inducible transcript 3 protein (P35639 whole entry): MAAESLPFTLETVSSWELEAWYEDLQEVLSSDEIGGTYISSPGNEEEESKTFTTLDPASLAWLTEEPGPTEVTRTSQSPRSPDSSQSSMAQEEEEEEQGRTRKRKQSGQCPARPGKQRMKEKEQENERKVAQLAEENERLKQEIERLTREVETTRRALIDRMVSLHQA

[20] = biological target: T7, X-box-binding protein 1 (Homo sapiens, UniProt P17861); format: functional, Cricetulus griseus;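 note: confirmatory dose-response counter-screen serving a CHOP assay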
T7 sequence (P17861 whole entry): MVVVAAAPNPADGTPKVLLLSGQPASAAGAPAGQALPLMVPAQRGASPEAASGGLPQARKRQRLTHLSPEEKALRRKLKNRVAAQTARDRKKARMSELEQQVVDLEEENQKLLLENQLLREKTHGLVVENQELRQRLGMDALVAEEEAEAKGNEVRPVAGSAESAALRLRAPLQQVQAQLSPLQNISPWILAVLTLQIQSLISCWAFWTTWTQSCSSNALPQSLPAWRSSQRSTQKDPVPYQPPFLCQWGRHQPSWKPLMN

[21] = viability loss in HEK293T cells – cell-based, cherry-picks, cytotoxicity control for HIV Vif inhibitor project, dose response (AID 652208); format: functional
[22] = biological target: T8, Hexokinase HKDC1 (Homo sapiens, UniProt Q2TB90); test: activation of HKDC1 glucose phosphorylation – biochemical, W721R variant, dose response (AID 504730); format: functional
T8 sequence (Q2TB90 whole entry): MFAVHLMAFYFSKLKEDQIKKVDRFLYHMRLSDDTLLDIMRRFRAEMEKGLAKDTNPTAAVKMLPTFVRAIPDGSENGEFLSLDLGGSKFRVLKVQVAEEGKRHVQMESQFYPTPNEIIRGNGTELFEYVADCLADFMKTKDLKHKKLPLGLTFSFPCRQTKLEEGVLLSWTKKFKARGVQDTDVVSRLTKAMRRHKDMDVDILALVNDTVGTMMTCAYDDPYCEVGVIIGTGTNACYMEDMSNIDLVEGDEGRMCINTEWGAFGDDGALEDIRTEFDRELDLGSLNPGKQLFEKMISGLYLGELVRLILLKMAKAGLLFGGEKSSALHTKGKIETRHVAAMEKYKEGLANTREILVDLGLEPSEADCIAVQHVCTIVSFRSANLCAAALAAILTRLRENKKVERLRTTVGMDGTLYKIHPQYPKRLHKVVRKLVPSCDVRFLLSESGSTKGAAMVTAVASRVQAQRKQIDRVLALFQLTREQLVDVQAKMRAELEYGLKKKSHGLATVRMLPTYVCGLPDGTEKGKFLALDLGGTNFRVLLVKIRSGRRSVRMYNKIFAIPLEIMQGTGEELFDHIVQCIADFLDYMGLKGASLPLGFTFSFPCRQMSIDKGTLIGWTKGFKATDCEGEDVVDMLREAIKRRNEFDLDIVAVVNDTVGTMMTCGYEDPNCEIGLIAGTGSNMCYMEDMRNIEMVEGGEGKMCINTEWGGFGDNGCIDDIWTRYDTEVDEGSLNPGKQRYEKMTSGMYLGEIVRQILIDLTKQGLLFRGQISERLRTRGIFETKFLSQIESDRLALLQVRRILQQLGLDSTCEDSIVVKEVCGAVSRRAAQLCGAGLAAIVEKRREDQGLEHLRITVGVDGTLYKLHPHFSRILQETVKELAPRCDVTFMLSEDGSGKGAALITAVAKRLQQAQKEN

[23] = biological target: Nonstructural protein 1 (Influenza A virus, UniProt Q194T2); format: functional, Influenza A virus (A/California/07/2009(H1N1))
Chain of Nonstructural protein 1 (Q194T2 whole entry): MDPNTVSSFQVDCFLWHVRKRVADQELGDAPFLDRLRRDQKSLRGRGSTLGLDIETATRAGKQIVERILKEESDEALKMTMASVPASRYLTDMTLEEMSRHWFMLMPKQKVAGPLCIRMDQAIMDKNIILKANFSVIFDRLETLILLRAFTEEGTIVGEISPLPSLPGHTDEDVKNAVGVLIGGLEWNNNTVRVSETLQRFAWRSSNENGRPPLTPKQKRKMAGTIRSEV

[24] = biological target: Hexokinase-1 (Homo sapiens, UniProt P19367); test: HK1 enzyme activation by HKDC1 hits – biochemical, selectivity assay for HKDC1 activator project, dose response (AID 504762); format: functional
Chain of Hexokinase-1 (P19367 whole entry): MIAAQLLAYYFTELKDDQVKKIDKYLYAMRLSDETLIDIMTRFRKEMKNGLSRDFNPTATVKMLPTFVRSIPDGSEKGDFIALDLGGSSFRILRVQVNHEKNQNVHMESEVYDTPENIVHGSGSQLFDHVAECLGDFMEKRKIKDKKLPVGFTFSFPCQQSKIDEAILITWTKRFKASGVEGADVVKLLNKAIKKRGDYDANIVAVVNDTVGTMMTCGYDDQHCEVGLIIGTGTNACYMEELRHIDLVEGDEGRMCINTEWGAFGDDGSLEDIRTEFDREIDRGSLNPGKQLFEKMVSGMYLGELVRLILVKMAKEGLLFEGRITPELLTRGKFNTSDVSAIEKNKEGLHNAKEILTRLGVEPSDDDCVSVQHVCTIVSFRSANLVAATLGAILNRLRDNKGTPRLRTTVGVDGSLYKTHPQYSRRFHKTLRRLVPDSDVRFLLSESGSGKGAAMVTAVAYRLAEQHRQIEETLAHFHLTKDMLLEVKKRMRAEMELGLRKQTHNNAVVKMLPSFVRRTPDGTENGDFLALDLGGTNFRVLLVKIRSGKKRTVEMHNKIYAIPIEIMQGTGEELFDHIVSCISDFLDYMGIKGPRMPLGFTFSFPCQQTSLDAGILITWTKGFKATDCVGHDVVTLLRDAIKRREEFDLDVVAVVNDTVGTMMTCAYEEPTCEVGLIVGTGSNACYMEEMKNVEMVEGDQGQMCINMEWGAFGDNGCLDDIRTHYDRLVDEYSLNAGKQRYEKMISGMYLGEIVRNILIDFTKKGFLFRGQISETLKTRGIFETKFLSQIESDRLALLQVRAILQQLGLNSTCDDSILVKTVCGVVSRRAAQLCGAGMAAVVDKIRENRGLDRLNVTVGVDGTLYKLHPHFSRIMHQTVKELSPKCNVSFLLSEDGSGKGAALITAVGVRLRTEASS

O=C(COc1ccc(Br)cc1)NCCCn1ccnc1
EC50 [1]: > 100 µM (inactive)

CC[C@](C)(C(=O)Nc1ccc(Br)cc1)N(Cc1ccco1)C(=O)c1ccccn1
IC50 [2]: > 32 µM (inactive) | EC50 [3]: 0.0802 µM (active) | IC50 [4]: > 32 µM (inactive)

Cc1ccc(OCCOc2ccc(Br)cc2)c([N+](=O)[O-])n1
EC50 [5]: > 50 µM (inactive) | EC50 [6]: 20.7 µM (inactive) and 23.3 µM (inactive)

CC1CCCc2ccccc21.CN[C@@H](C)C(=O)N[C@@H](C(=O)N1CCC[C@H]1C(N)=O)C1CCCCC1 (H-[NMeA]-[dChg]-Pro-NH2)
IC50 [7]: > 100 µM (inactive) | IC50 [8]: > 100 µM (inactive)

Cc1ccc(C(=O)n2nc(-c3cccnc3)nc2N)cc1
IC50 [9]: 0.543 µM (active) | IC50 [10]: 0.796 µM (active) | IC50 [11]: > 100 µM (inactive)

N=c1c(S(=O)(=O)c2ccccc2)cc2c(=O)n3ccccc3nc2n1Cc1ccco1
IC50 [12]: 3.38 µM (active) | IC50 [13]: 6.01 µM (active) | IC50 [14]: 57.5 µM (inactive)

Cc1cc(NC(=O)NC2(C(F)(F)F)Oc3ccc(Cl)cc3O2)no1 (centres undefined)
IC50 [15]: 1.69 µM (active) | IC50 [16]: > 59.6 µM (not active) | IC50 [17]: > 100 µM (inactive) | IC50 [18]: > 100 µM (not active) | Absolute IC50 (CHOP) [19]: 10 µM | Absolute IC50 (XBP1) [20]: < 10 µM | AC50 [21]: 38 µM (active)

S=C(NN=C(c1ccccc1)c1ccccn1)N(Cc1ccccn1)Cc1ccccn1
EC50 [22]: 1.78 µM (active) | IC50 [23]: 2.59 µM (active) | EC50 [24]: > 80 µM (inactive)
